# Experimental data: ChEMBL document CHEMBL1201862, “PubChem BioAssay data set” (2004)
#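 How tested: cells in 96-well plates exposed to compound for 48 hours at five concentrations. Abbreviation: GI50, concentration required for 50% inhibition of growth.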 The source made the active and inactive calls. No stated cut-off is given here; in the data, active = GI50 up to about 1.1 µM and inactive = higher.
# Tests used:
# Test in all cases: DTP human tumour cell line panel, 48 h
# [1] = test system: MDA-N
# [2] = test system: T47D
# [3] = test system: RPMI-8226
# [4] = test system: TK-10
# [5] = test system: SW-620
# [6] = test system: RXF 393
# [7] = test system: NCI-H23
# [8] = test system: DU-145
# [9] = test system: A549
# [10] = test system: COLO 205
# [11] = test system: IGROV-1
# [12] = test system: HL-60
# [13] = test system: SNB-75
# [14] = test system: NCI-H226
# [15] = test system: UACC-257
# [16] = test system: OVCAR-8
# [17] = test system: SK-MEL-2
# [18] = test system: BT-549
# [19] = test system: HOP-62
# [20] = test system: SF-539
SMILES,GI50 [1],GI50 [2],GI50 [3],GI50 [4],GI50 [5],GI50 [6],GI50 [7],GI50 [8],GI50 [9],GI50 [10],GI50 [11],GI50 [12],GI50 [13],GI50 [14],GI50 [15],GI50 [16],GI50 [17],GI50 [18],GI50 [19],GI50 [20]
O=C(c1ccccc1)n1[nH]c(=O)n(-c2ccc(Cl)cc2)c1=O,> 100 µM (inactive),> 100 µM (inactive),> 100 µM (inactive),> 100 µM (inactive),> 100 µM (inactive),> 100 µM (inactive),> 100 µM (inactive),> 100 µM (inactive),> 100 µM (inactive),> 100 µM (inactive),> 100 µM (inactive),> 100 µM (inactive),> 100 µM (inactive),> 100 µM (inactive),> 100 µM (inactive),> 100 µM (inactive),> 100 µM (inactive),> 100 µM (inactive),> 100 µM (inactive),–
NNC(=O)c1nnn(N)c1S,> 100 µM (inactive),> 100 µM (inactive),> 100 µM (inactive),> 100 µM (inactive),> 100 µM (inactive),> 100 µM (inactive),> 100 µM (inactive),> 100 µM (inactive),> 100 µM (inactive),> 100 µM (inactive),> 100 µM (inactive),1 µM (active),> 100 µM (inactive),> 100 µM (inactive),> 100 µM (inactive),> 100 µM (inactive),> 100 µM (inactive),> 100 µM (inactive),> 100 µM (inactive),> 100 µM (inactive)
NNC(=O)CSc1nnc(CCCCCCCCc2nnc(SCC(=O)NN)o2)o1,> 100 µM (inactive),> 100 µM (inactive),> 100 µM (inactive),> 100 µM (inactive),> 100 µM (inactive),> 100 µM (inactive),> 100 µM (inactive),> 100 µM (inactive),> 100 µM (inactive),> 100 µM (inactive),> 100 µM (inactive),> 100 µM (inactive),> 100 µM (inactive),> 100 µM (inactive),> 100 µM (inactive),> 100 µM (inactive),> 100 µM (inactive),> 100 µM (inactive),> 100 µM (inactive),–
CCN(CC)c1ccc2cc(C(=O)Nc3ccccc3)c(=N)oc2c1,> 100 µM (inactive),> 100 µM (inactive),> 100 µM (inactive),> 100 µM (inactive),> 100 µM (inactive),> 100 µM (inactive),–,> 100 µM (inactive),> 100 µM (inactive),> 100 µM (inactive),> 100 µM (inactive),> 100 µM (inactive),> 100 µM (inactive),> 100 µM (inactive),> 100 µM (inactive),> 100 µM (inactive),> 100 µM (inactive),> 100 µM (inactive),> 100 µM (inactive),> 100 µM (inactive)
C/C(=N\Nc1nc2ccccc2[nH]1)c1cc2ccccc2cn1,0.171 µM (active),< 0.0352 µM (active),< 0.01 µM (active),0.122 µM (active),< 0.012 µM (active),0.208 µM (active),0.0345 µM (active),0.442 µM (active),0.0775 µM (active),< 0.01 µM (active),< 0.0175 µM (active),< 0.01 µM (active),0.317 µM (active),0.0382 µM (active),0.0243 µM (active),< 0.018 µM (active),0.508 µM (active),0.592 µM (active),1.11 µM (active),0.1 µM (active)
Nc1nc(Cl)c(N)c(NCC2(CO)CCC(CCc3ccccc3)C2)n1 (configuration not stated),15.2 µM (inactive),1.56 µM (inactive),14.3 µM (inactive),21.3 µM (inactive),2.08 µM (inactive),17.4 µM (inactive),0.0435 µM (active),21.4 µM (inactive),11.8 µM (inactive),9.93 µM (inactive),22.8 µM (inactive),3.37 µM (inactive),25.4 µM (inactive),18.2 µM (inactive),0.461 µM (active),14 µM (inactive),15.7 µM (inactive),11.1 µM (inactive),17 µM (inactive),15.5 µM (inactive)
COc1c(CC=C(C)C)c(O)c(C(CC(C)C)c2c(O)c(CC=C(C)C)c(O)c(C(C)=O)c2O)c(O)c1C(C)=O (configuration not stated),2.16 µM (inactive),0.385 µM (active),0.419 µM (active),1.03 µM (active),0.48 µM (active),0.427 µM (active),0.275 µM (active),2.32 µM (inactive),1.8 µM (inactive),0.564 µM (active),1.7 µM (inactive),0.767 µM (active),1.69 µM (inactive),1.24 µM (inactive),1.45 µM (inactive),0.385 µM (active),0.504 µM (active),1.62 µM (inactive),1.4 µM (inactive),1.16 µM (inactive)
